Experimental data from US11028111B2, “Compound for treating metabolic diseases and preparation method and use thereof” (Xi' An Biocare Pharma Ltd., priority 2017, dated 2021).

Experiments:
[1] = system: 17α-Ethinylestradiol (E2-17α) induced cholestasis in rats; experiment: Bile discharge in 17α-ethinylestradiol (E2-17α) induced cholestasis in rats; format: in vivo, Sprague Dawley rats; details: for Bile discharge amount compared with the ursodeoxycholic acid group: 105 minutes after administration, UDCA 15 mg/kg; for Bile flow rate compared with the E2-17α group / Effect on ameliorating intrahepatic cholestasis, promoting bile excretion: E2-17α cholestasis rats; for Bile flow rate compared with the E2-17α group: P<0.05 vs E2-17α; for Effect on ameliorating intrahepatic cholestasis, promoting bile excretion: conclusion
Experimental: Preparation of 1.0% CMC-Na solution: 1 p CMC-Na powder was weighed and added to 100 mL (50° C.) of distilled water, the mixture was rapidly stirred with a stirrer for 1 hour to fully swell, thereby to obtain a 1% CMC-Na solution.
Preparation of E2-17α solution in propylene glycol: 54/0.98=56 mp of E2-17α was weighed, dissolved in […] of propane-1,2-diol, shaked by a vortexer for 1 hour, thereby to obtain a 7 mp/mL suspension of E2-17α.
(§1) 17α-Ethinylestradiol (E2-17α) was administered by subcutaneous injection into the neck for model establishment for 7 days. Meantime, the test compounds were suspended in a 1% CMC-Na solution and administered by intragastric administration for 7 days during the E2-17α modeling.
(§2) E2-17α in propylene glycol was administered to rats for 7 days to establish the model, and different test samples in CMC-Na solution were administered by intragastric administration. On the 8th day, 1 mL of rat fasting blood sample was collected for detection of serum biochemical indicators, and E2-17α in propylene glycol was continuously administered to establish the model, and different test samples CMC-Na solution were administered by intragastric administration. After 0.5 hours of administration on the 9th day, the rats were weighed and anesthetized with 10% urethane (10 mL/kg) via intraperitoneal injection. After anesthesia, the rat was fixed on a board. A midline abdominal incision was made from the upper acetabular area, and the incision was about 2 to 3 cm. The indoor temperature should be maintained during the experiment, the body temperature of the rats was maintained and bile outflow was promoted. Handle of ophthalmic forceps was used to turn the liver up and find the duodenum and stomach junction. A suture (size 0) was placed at the junction to reserve. On the duodenum, about 2 cm away from the pylorus, a thin tube with a yellow transparent tube perpendicular to the duodenum could be found passing through the pancreas, that is, the common bile duct. At the junction of the common bile duct and the duodenum, the common bile duct was separated by an ophthalmic curved forceps, but was careful not to break the small blood vessels around the bile duct and avoided stimulating the pancreatic tissue by hand. After the separation, two sutures were place, and the suture close to the intestine end was ligated, as a traction suture, ophthalmic scissors were used to obliquely cut a small opening in the wall of the tube, a prepared pancreatic juice collection tube was inserted into the small opening. A mixture of yellow bile and pancreatic juice flowed out immediately after the insertion. The tube was ligated and fixed, and this tube was used to collect bile. After completion of the intubation, the skin was sutured. The other end of the bile duct intubation was taken out, flowing out to a fixed 0.5 mL centrifuge tube. Bile was continuously collected 8 times once every 15 minutes, until 120 minutes.
After completion of the intubation, the skin was sutured to prevent water evaporation of the abdominal cavity. The other end of the bile duct intubation was taken out, and the bile flowed out to a fixed 0.5 mL collection tube. Bile was continuously collected 8 times once every 15 minutes for a total of 120 minutes. Before the experiment, the collection tube was accurately weighed using an analytical balance. After the bile was collected in the experiment, the total weight of the bile and the collection tube was weighed, and the weight of the bile in the tube was calculated by subtraction and converted to a volume based on 1 g/mL.
(§3) The data were analyzed using SPSS18.0 statistics software. Measurement data were compared between the two groups using the t test. Multiple groups of means were compared using one-way analysis of variance (ANOVA) and multiple comparisons between groups. Data mean±standard error (Mean±SEM.) or mean±standard deviation (Mean±SD.).

[2] = system: 17α-Ethinylestradiol (E2-17α) induced cholestasis in rats; experiment: Serum ALT, AST, ALP in E2-17α induced cholestasis rats; format: in vivo, Sprague Dawley rats; details: for Serum ALP / Serum ALT / Serum AST: E2-17α cholestasis rats after intragastric administration, x ± s; for Values of ALT, AST, and ALP (serum): E2-17α cholestasis rats, in words
Experimental: as §1, §2
The blood sample was allowed to stand in a 37° C. water bath for 10 minutes, centrifuged at 3000 rpm (1368 g)×10 min, the serum was separated conventionally, dispensed and frozen at −20° C. for storage. The indicators to be detected in serum included ALT, AST, and ALP. The detection methods of the above indicators were all carried out in accordance with the relevant instructions of the kit.
as §3

[3] = system: rat model of cirrhotic portal hypertension (TAA); experiment: Portal vein pressure in TAA-induced rat model of cirrhotic portal hypertension; format: in vivo, rats; details: i.g.
Experimental: 1) Preparation of saline solution of TAA: 10 g of thioacetamide (TAA) was weighed and dissolved in 100 mL of saline solution, and then filtered through a 0.22 μm sterile membrane filter into a sterile bottle.
2) Preparation of 0.5% CMC-Na suspension of test compound: 400 mg of Compound 1-H, Compound 1-IP, Compound 1-Cl, Compound 1-Mel or Compound 2-0 were weighed and dissolved in 100 mL of 0.5% CMC-Na solution, and shaken by a vortexer for 30 minutes, thereby to obtain 20 mg/Kg (high dose) groups. That is, CMC-Na suspension of 4 mg/mL of Compounds 1-H, 1-IP, 1-Cl, 1-Mel or 2-0. For the middle and low dose groups, drug preparation methods were the same.
(§4) A rat model of cirrhotic portal hypertension was established by intraperitoneal injection of TAA. Except that the blank control group was intraperitoneally injected with saline, remaining animals were intraperitoneally injected (i.p.) with 10% thioacetamide (TAA) in saline solution to establish the model. The dose was 200 mg/Kg, and the administration volume was 2 mL/Kg. All experimental animals were intraperitoneally injected with TAA or an equal volume of saline once every three days. Before each dose, the rat shaving beddings should be replaced by clean ones in advance. The body weight was measured once every two modeling administration. The body weight of the rats increased or decreased by 10% compared with the previous one, the dose of TAA increased or decreased by […] correspondingly. The administration was individualized to strictly control body weight change of each rat, which could effectively improve the success rate and uniformity of modeling.
The successfully modeled animals were randomly grouped, 12 rats per group, and 20 rats in the blank control group. Portal hypertension was induced by TAA in rats, and a portal hypertension model was established after 13 days. The test compound was administered once a day for 10 days. […]
Rats were fasted for 12 hours before the experiment, and were anesthetized with 10% chloral hydrate via intraperitoneal injection. […] Stable portal vein pressure was measured. […]

[4] = system: rat model of cirrhotic portal hypertension (TAA); experiment: Serum indicators (ALT, AST, ALP, ALB, γ-GT, TBA) in TAA cirrhotic portal hypertension rats; format: in vivo; details: for Serum ALT level / Serum AST level: P<0.05
Experimental: as §4
(§5) The successfully modeled animals were randomly grouped, 12 rats per group, and 20 rats in the blank control group. Portal hypertension was induced by TAA in rats, and a portal hypertension model was established after 13 days. The test compound was administered once a day for 10 days. The specific groupings are shown as follows:
At the end of the administration, orbital blood was collected from the rats. The blood sample was placed in a 37° C. water bath for 10 minutes, centrifuged for 10 minutes at 3000 r/min (1370 g). Upper layer of the serum was taken and detected directly, or temporarily stored at −80° C., for serologic indicator measurement. After the blood samples were collected, the rats were fed with foods and water for 3 days.
1) 1.5 mL of orbital blood was collected before the experiment, of which the steps were the same as the aforesaid steps, to measure serum ALT, AST, ALP, γ-GT and TBA contents.

[5] = system: rat model of cirrhotic portal hypertension (TAA); experiment: Liver appearance and liver pathological sections (Masson, HE) in TAA cirrhotic portal hypertension rats; format: in vivo
Experimental: as §4, §5
2) A small piece at same part of the liver of the rat was cut and fixed in a 10% formaldehyde solution for tissue section pathology observation. An appropriate size of the liver was cut off, and the blood on the surface was washed off quickly with saline, put into a sterile EP tube, cryopreserved in liquid nitrogen for subsequent experiments.

[6] = all administration groups, P<0.05, P<0.01

Structure (SMILES) | Bile discharge amount compared with the ursodeoxycholic acid group [1] | Bile flow rate compared with the E2-17α group [1] | Effect on ameliorating intrahepatic cholestasis, promoting bile excretion [1] | Serum ALP [2] [U/L] | Serum ALT [2] [U/L] | Serum AST [2] [U/L] | Values of ALT, AST, and ALP (serum) [2] | also measured
CC[C@@H]1C2C[C@H](O)CC[C@]2(C)C2CC[C@@]3(C)C(CC[C@@H]3[C@H](C)CCOP3(=O)OCC[C@@H](c4ccnc(Cl)c4)O3)C2[C@@H]1O (some centres unmarked) [Compound 1-Cl] | significantly higher | significantly increased | significant effect | 226.65 ± 12.38 | 77.36 ± 11.42 | 230.89 ± 12.38 | lower | –
CC[C@@H]1C2C[C@H](O)CC[C@]2(C)C2CC[C@@]3(C)C(CC[C@@H]3[C@H](C)CCO[P@@]3(=O)OCC[C@@H](c4ccncc4)O3)C2[C@@H]1O (some centres unmarked) [Compound 1-H] | significantly higher | significantly increased | significant effect | 218.64 ± 18.94 | 72.36 ± 14.74 | 228.82 ± 17.74 | lower | Mean percentage change of portal vein pressure (vs mean of TAA group) ([3]; TAA + 5 mg/Kg): > 10%; Mean percentage change of portal vein pressure (vs mean of TAA group) ([3]; TAA + 10 mg/Kg): > 10%; Mean percentage change of portal vein pressure (vs mean of TAA group) ([3]; TAA + 20 mg/Kg): > 10%; Serum ALT level ([4]; 5 mg/Kg group): decreased; Serum AST level ([4]; 5 mg/Kg group): decreased; Serum ALT level ([4]; 10 mg/Kg group): decreased; Serum AST level ([4]; 10 mg/Kg group): decreased; Serum ALT level ([4]; 20 mg/Kg group): decreased; Serum AST level ([4]; 20 mg/Kg group): decreased; Serum TBA level ([4]; all administration groups, P<0.01): decreased; Serum ALP level (FIG. 10 (C)) [4, 6]: decreased; Serum γ-GT level [4, 6]: decreased; Appearance of liver and spleen (liver cirrhosis nodules) compared with TAA group ([5]; TAA + 5 mg/Kg): milder; Liver pathological sections (Masson, HE): liver fibrosis ([5]; TAA + 5 mg/Kg): symptoms of liver fibrosis were ameliorated; Effect on hyperplasia of liver fibrous tissue and pseudolobule formation (pathological indicators) ([5]; TAA rats, all dose groups): certain improvement effects
CC(C)[C@@H]1C2C[C@H](O)CC[C@]2(C)C2CC[C@@]3(C)C(CC[C@@H]3[C@H](C)CCOP3(=O)OCC[C@@H](c4ccncc4)O3)C2[C@@H]1O (some centres unmarked) [Compound 1-IP] | – | significantly increased | significant effect | 230.92 ± 14.00 | 87.42 ± 11.72 | 258.83 ± 10.82 | lower | –
CC[C@@H]1C2C[C@H](O)CC[C@]2(C)C2CC[C@@]3(C)C(CC[C@@H]3[C@H](C)CCOP3(=O)OC(C)C[C@@H](c4ccncc4)O3)C2[C@@H]1O (some centres unmarked) [Compound 1-Me1] | – | significantly increased | significant effect | 235.64 ± 16.26 | 80.64 ± 13.22 | 252.18 ± 16.59 | lower | –
CC[C@@H]1C2C[C@H](O)CC[C@]2(C)C2CC[C@@]3(C)C(CC[C@@H]3[C@H](C)CCO[P@](=O)(N[C@@H](C)C(=O)COC(C)C)Oc3ccccc3)C2[C@@H]1O (some centres unmarked) [Compound 2-0] | – | significantly increased | significant effect | 220.35 ± 12.92 | 78.64 ± 10.65 | 236.59 ± 13.06 | lower | –
C[C@H](CCC(=O)O)[C@H]1CC[C@H]2[C@@H]3[C@@H](O)C[C@@H]4C[C@H](O)CC[C@]4(C)[C@H]3CC[C@]12C [UDCA, ursodeoxycholic acid, reference compound] | – | – | – | 242.18 ± 12.10 | 85.55 ± 13.80 | 263.36 ± 15.35 | – | –
